Test results reported in PMC5493349, “Quaternary structure is an essential component that contributes to the sophisticated allosteric regulation mechanism in a key enzyme from Mycobacterium tuberculosis” (PLoS ONE, 2017).

Columns and labels:
[1] = biological target: MtuDAH7PSG232P (Mycobacterium tuberculosis, UniProt O53512, G232P); assay type: biochemical
[2] = biological target: MtuDAH7PSF227D (Mycobacterium tuberculosis, UniProt O53512, F227D); assay type: biochemical
[3] = biological target: T1, wild-type MtuDAH7PS (Mycobacterium tuberculosis, UniProt O53512); conditions: cited from earlier work
[4] = biological target: T1, wild-type MtuDAH7PS; assay type: biochemical

Structure (SMILES) | inhibition of dimeric variant MtuDAH7PSG232P [1] [%] | inhibition of dimeric variant MtuDAH7PSF227D [2] [%] | inhibition of wild-type enzyme by single amino acid, unsaturated E4P [3] [%] | inhibition of wild-type enzyme [4]
N[C@@H](Cc1ccccc1)C(=O)O [Phe, L-Phe] | 50 | 50 | 50 | –
N[C@@H](Cc1ccc(O)cc1)C(=O)O [Tyr, L-Tyr] | 40 | 40 | 47 | no inhibition
